From patent US20090234122A1, “CYANINE DYE AND OPTICAL RECORDING MEDIUM” (priority 2005, published 2009)

Tests used:
Type in all cases: physicochemical
[1] = Lightfastness of cyanine dye thin membranes under xenon lamp irradiation; conditions: thin membrane on glass, 180 W/m^2, 5.5 hours
Method: The solution was in conventional manner dropped to homogeneity over the surface of either side of a polished glass substrate, 5 cm×5 cm, followed by rotating the glass substrate at a rate of 1,000 rpm/min for one minute to homogeneously apply the solution over the substrate and then drying the substrate by blowing hot air or cold air in this order to form a thin membrane of any one of the cyanine dyes of the present invention.
The cyanine dyes were measured for transmittance (T0) at the wavelengths of their absorption maxima (about 450 nm), while a 7.5 W xenon lamp was fixed apart from the glass substrate at a prescribed intervals and irradiated therewith (irradiated energy of 180 W/m^2 when measured on the surface of the substrate) for 5.5 hours while blowing cold air to the substrate. Thereafter, the substrates were immediately measured for transmittance (T) at the wavelengths of absorption maxima of the cyanine dyes and the residual percentages (%) thereof were calculated by assigning the obtained transmittances T and T0 the equation 1. In parallel, similarly as in the above, thin membranes, as controls 1 to 4, formed with any one of the compounds represented by Chemical Formulae 33, 37, 40 and 41; thin membranes, as controls 5 to 8, formed with any one of the compounds represented by Chemical Formulae 33, 37, 40 and 41 in combination with the azo metal complex presented by Chemical Formula 34 as a light resistant improver; and thin membranes, as controls 9 to 10, formed with any one of the compounds represented by Chemical Formulae 42 and 43, and these thin membranes were similarly treated as in the above, and measured for transmittances T and T0 at wavelengths of their absorption maxima for use as controls.

[2] = Decomposition point on DSC analysis; conditions: onset temperature of exothermic peak induced by decomposition
From the text: The decomposition points of organic dye compounds such as cyanine dyes can be determined on, for example, commonly used differential scanning calorimetric analysis (abbreviated as “DSC”, hereinafter).
The melting point means a peak top temperature of endothermic peak during temperature increase on DSC analysis, while the decomposition point means an onset temperature of exothermic peak induced by decomposition during temperature increase on DSC analysis. These are applicable to the following measurements.

[3] = Solubility in organic solvents at 20° C.; conditions: N,N-dimethylformamide, methanol, TFP, methylethylketone, acetonitrile, chloroform
[4] = in combination with lightfastness improver Chemical Formula 34 (azo metal complex)
[5] = transmittance at absorption maximum (about 450 nm), lightfastness improver: Non

Residual percentage (%) of dye [1, 4] [%] | Residual percentage (%) of dye [1, 5] [%] | decomposition point [2] | Compound | solubility in organic solvents [3]
91.5 | 35.6 | around 227 °C | CN1C(=CC2=[N+](C)c3ccccc3C23CCCCC3)C2(CCCCC2)c2ccccc21 [Chemical Formula 40] | –
– | 15.3 | – | CN1C(=CC2=[N+](C)c3ccccc3C2(C)C)C(C)(C)c2ccccc21 [Chemical Formula 42] | –
93.8 | 33.8 | around 240 °C | CN1C(=CC2=[N+](C)c3ccccc3C23CCCCC3)C(C)(C)c2ccccc21 [Chemical Formula 41] | –
89.9 | 29.4 | around 212 °C | CCN1C(=CC2=[N+](CC)c3ccccc3C2(C)Cc2ccccc2)C(C)(Cc2ccccc2)c2ccccc21 (stereo not shown) [Chemical Formula 33] | –
– | 99.1 | ~273 °C | CN1C(=CC2=[N+](C)c3ccccc3C2(C)Cc2ccccc2)C(C)(C)c2ccccc21 (stereo not shown) [Chemical Formula 20] | satisfactory solubilities with no actual hindrance
90.3 | 31.2 | around 238 °C | CN1C(=CC2=[N+](C)c3ccccc3C2(C)Cc2ccccc2)C(C)(C)c2ccccc21 (stereo not shown) [Chemical Formula 37] | –
